Read-outs that look alike come from different tables or passages of the source.
Key:
MDR1 (P-gp) = biological target: T1, MDR1 (P-gp) (Homo sapiens, UniProt P08183); assay: MDR1 LLC-PK1 permeability assay; assay type: in vitro ADME; conditions: pig, MDR1 transfected LLC-PK1 cells; for Papp at 2 h, 1 μM: permeability coefficient (Papp)
T1 construct: expressed in transfected cells; host or cells: LLC-PK1
Procedure: MDR1 transfected LLC-PK1 cells were cultured and plated according to manufacturer's recommendations with the exception that the passage media contained only 2% fetal bovine serum to extend passage time out to seven days.
Both positive and negative controls were used to assess functionality of P-gp efflux in the assay. Stock solutions for assay controls and the test article were prepared in DMSO for final test concentrations of 10 and 1 μM, respectively. Final organic concentration in the assay was 1%. All dosing solutions contained 10 μM lucifer yellow to monitor LLC-PK1 cell monolayer integrity.
For the apical to basolateral determination (A to B), 75 μL of the test article in transport buffer were added to the apical side of the individual transwells and 250 μL of basolateral media, without compound or lucifer yellow, were added to each well. For the basolateral to apical determination (B to A), 250 μL of test article in transport buffer were added to each well and 75 μL transport buffer, without compound or lucifer yellow, were added to each transwell. All tests were performed in triplicate, and each compound was tested for both apical to basolateral and basolateral to apical transport. The plates were incubated for 2 hours on a Lab-Line Instruments Titer Orbital Shaker (VWR, West Chester, Pa.) at 50 rpm and 37° C. with 5% CO2. All culture plates were removed from the incubator and 50 μL of media were removed from the apical and basolateral portion of each well and added to 150 μL of 1 μM labetalol in 2:1 acetonitrile (acetonitrile): H2O, v/v.
The plates were read using a Molecular Devices (Sunnyvale, Calif.) Gemini Fluorometer to evaluate the lucifer yellow concentrations at excitation/emission wavelengths of 425/535 nm. These values were accepted when found to be below 2% for apical to basolateral and 5% basolateral to apical flux across the MDR1-transfected LLC-PK1-transfected cell monolayers. The plates were sealed and the contents of each well analyzed by LC-MS/MS. The compound concentrations were determined from the ratio of the peak areas of the compound to the internal standard (labetalol) in comparison to the dosing solution.
The LC-MS/MS system was comprised of an HTS-PAL autosampler (Leap Technologies, Carrboro, N.C.), an HP1200 HPLC (Agilent, Palo Alto, Calif.), and a MDS Sciex 4000 Q Trap system (Applied Biosystems, Foster City, Calif.). […] The total run time, including re-equilibration, for a single injection was 1.2 minutes. Mass spectrometric detection of the analytes was accomplished using the ion spray positive mode. Analyte responses were measured by multiple reaction monitoring (MRM) of transitions unique to each compound (the protonated precursor ion and selected product ions for each test article and m/z 329 to m/z 162 for labetalol, the internal standard).
The permeability coefficient (Papp) is calculated from the following equation: […]
where Cd, V, t and C0 are the detected concentration (μM), the volume on the dosing side (mL), the incubation time (s) and the initial dosing concentration (μM), respectively. The calculations for Papp were made for each replicate and then averaged. In this assay, a compound is defined has having high permeability if the permeability is greater than 8×10^−6 cm/sec, a compound is defined has having medium permeability if the permeability is from 2×10^−6 cm/sec to 8×10^−6 cm/sec, and a compound is defined has having low permeability if the permeability is less than 2×10^−6 cm/sec.
An efflux ratio was calculated from the mean apical to basolateral (A-B) Papp data and basolateral to apical (B-A) Papp data:
Efflux ratio=Papp(B−A)/Papp(A−B)

human MET kinase F1200I = biological target: T2, human MET kinase F1200I (Homo sapiens, UniProt P08581, F1200I); assay: c-Met Enzyme Assay, F1200I mutant; assay type: binding; conditions: averaged IC50; F1200I 2 nM; 60-minute incubation at 22° C.
T2 construct: GST-tagged recombinant human MET kinase domain; purchased Signal Chem
Procedure: (§1) The affinity of compound binding to wild type and mutant human MET kinases was measured using Invitrogen's LanthaScreen™ Eu Kinase Binding technology. Briefly, GST-tagged recombinant human MET kinase domain from Signal Chem (see Table 8 below for concentration in assay) was incubated with 50 nM Alexa-Fluor® Tracer 236 (Invitrogen Cat No. PR9078A) and 2 nM Europium-anti-GST (Invitrogen Cat. No. A15116) along with test compound in a buffer consisting of 25 mM HEPES, pH 7.4, 10 mM MgCl2, 0.01% Triton X-100, 1mM DTT, and 2% DMSO. Compounds were typically prepared in a three-fold serial dilution in DMSO and added to the assay to give the appropriate final concentration. After a 60-minute incubation at 22° C., the reaction was measured using a PerkinElmer EnVision multimode plate reader via TR-FRET dual wavelength detection, and the percent of control (POC) calculated using a ratiometric emission factor. […] The POC values were fit to a 4 parameter logistic curve and the IC50 value is point where the curve crosses 50 POC.

human MET kinase D1228H = biological target: T3, human MET kinase D1228H (Homo sapiens, UniProt P08581, D1228H); assay: c-Met Enzyme Assay, D1228H mutant; assay type: binding; conditions: averaged IC50; D1228H 2 nM; 60-minute incubation at 22° C.; read-out: D1228 H IC50
T3 construct: GST-tagged recombinant human MET kinase domain; purchased Signal Chem
Procedure: as §1

[1] = LLC-PK1, efflux ratio = Papp(B-A)/Papp(A-B), read-out: MDR1 Pe Ratio
[2] = LLC-PK1, Papp(B−A)/Papp(A−B), test article 1 μM, 2 hours, 37° C., read-out: Efflux ratio

T1 sequence (P08183 whole entry): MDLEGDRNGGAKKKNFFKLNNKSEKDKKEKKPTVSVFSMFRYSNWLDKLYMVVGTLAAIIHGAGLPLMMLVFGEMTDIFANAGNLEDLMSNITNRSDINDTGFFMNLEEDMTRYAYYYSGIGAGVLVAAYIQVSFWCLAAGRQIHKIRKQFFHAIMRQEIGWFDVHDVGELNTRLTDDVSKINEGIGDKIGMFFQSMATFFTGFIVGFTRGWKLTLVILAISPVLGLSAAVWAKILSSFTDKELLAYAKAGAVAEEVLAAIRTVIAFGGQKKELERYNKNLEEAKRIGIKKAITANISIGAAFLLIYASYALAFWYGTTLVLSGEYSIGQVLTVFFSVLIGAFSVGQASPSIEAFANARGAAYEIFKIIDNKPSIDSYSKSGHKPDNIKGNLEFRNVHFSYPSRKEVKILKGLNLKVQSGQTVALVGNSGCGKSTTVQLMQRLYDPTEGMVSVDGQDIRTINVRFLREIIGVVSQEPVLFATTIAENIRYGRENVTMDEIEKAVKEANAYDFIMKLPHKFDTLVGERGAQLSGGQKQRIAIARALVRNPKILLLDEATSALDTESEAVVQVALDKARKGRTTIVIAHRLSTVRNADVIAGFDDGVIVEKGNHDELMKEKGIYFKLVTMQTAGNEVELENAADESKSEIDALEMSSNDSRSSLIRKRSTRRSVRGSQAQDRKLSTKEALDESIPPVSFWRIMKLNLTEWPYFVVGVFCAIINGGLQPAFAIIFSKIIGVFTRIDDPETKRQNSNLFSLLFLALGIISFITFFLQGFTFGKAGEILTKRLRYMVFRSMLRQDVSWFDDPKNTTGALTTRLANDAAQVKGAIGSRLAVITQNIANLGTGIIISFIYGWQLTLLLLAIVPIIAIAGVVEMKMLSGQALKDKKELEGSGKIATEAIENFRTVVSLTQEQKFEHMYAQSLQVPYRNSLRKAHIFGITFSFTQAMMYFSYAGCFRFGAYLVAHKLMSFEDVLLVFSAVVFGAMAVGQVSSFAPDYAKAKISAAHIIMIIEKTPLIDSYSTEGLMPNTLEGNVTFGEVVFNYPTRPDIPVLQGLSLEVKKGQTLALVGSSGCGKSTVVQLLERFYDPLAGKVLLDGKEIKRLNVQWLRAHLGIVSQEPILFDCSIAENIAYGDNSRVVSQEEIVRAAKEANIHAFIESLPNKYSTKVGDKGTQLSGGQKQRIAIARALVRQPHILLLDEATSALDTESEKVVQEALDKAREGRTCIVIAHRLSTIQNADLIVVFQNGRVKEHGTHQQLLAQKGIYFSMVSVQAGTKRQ
T2 sequence (P08581 1078-1345 F1200I limits assumed): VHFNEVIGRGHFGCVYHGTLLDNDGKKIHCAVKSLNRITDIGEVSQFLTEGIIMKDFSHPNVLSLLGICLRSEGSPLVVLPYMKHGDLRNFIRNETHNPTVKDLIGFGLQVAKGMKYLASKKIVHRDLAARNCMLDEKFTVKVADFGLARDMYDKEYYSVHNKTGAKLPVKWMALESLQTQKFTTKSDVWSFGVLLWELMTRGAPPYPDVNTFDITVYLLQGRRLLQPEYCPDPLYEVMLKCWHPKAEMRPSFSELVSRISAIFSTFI
T3 sequence (P08581 1078-1345 D1228H): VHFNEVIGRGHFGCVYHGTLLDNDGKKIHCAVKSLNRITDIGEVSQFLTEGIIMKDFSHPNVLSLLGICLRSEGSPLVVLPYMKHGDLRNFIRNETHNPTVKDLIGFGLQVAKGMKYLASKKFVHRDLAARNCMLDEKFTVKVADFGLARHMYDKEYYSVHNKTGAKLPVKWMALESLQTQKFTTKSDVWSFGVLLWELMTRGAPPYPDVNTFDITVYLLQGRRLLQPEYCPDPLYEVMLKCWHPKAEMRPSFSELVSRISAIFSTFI

| Structure (SMILES) | efflux ratio at 2 h, 1 μM (MDR1 (P-gp); [1]) | Papp at 2 h, 1 μM (MDR1 (P-gp)) [×10⁻⁶ cm/s] | IC50 (human MET kinase F1200I) [nM] | IC50 (human MET kinase D1228H) [nM] | efflux ratio at 2 h, 1 μM (MDR1 (P-gp); [2]) |
| --- | --- | --- | --- | --- | --- |
| CCCC(CCC)n1cc(C(=O)Nc2ccc(Oc3ccnc4cc(OC)c(OC)cc34)cn2)c(=O)c(-c2ccc(F)cc2F)c1 [Example 17, 5-(2,4-difluorophenyl)-N-(5-((6,7-dimethoxyquinolin-4yl)oxy)pyridin-2-yl)-1-(heptan-4-yl)-4-oxo-1,4-dihydropyridine-3-carboxamide] | 24 | < 1 | 23.4 | 13.3 |  |
| COc1cc2nccc(Oc3ccc(NC(=O)c4cn(C(C)C)cc(-c5ccc(F)cc5Cl)c4=O)nc3)c2cc1OC [Example 18, 5-(2-chloro-4-fluorophenyl)-N-(5-((6,7-dimethoxyquinolin-4-yl)oxy)pyridin-2-yl)-1-isopropyl-4-oxo-1,4-dihydropyridine-3-carboxamide] | 2.1 | 11 | 4.3 | 2.4 | 3.5 |
| COc1cc2nccc(Oc3ccc(NC(=O)c4cn(C(C)C)cc(-c5ccc(F)cc5C)c4=O)nc3)c2cc1OC [Example 19, N-(5-((6,7-dimethoxyquinolin-4yl)oxy)pyridin-2-yl)-5-(4-fluoro-2-methylphenyl)-1-isopropyl-4-oxo-1,4-dihydropyridine-3-carboxamide] | 2.8 | 11 | 2.8 | 1.6 | 3.5 |
| CNC(=O)Cn1cc(C(=O)Nc2ccc(Oc3ccnc4cc(OC)c(OC)cc34)cn2)c(=O)c(-c2ccc(F)cc2)c1 [Example 22] | 80 | 2 | 2.5 | 4.2 |  |
| COc1cc2nccc(Oc3ccc(NC(=O)c4cn(CC(=O)N(C)C)cc(-c5ccc(F)cc5)c4=O)nc3)c2cc1OC [Example 23, N-(5-((6,7-dimethoxyquinolin-4yl)oxy)pyridin-2-yl)-1-(2-(dimethylamino)-2-oxoethyl)-5-(4-fluorophenyl)-4-oxo-1,4-dihydropyridine-3-carboxamide] | 105 | 6 | 4.3 | 11.5 |  |
| COc1cc2nccc(Oc3ccc(NC(=O)c4cn(CC(=O)N(C)C)cc(-c5ccc(Cl)cc5)c4=O)nc3)c2cc1OC [Example 25] | 136 | 6.4 | 11.5 | 22.3 |  |
| COc1cc2nccc(Oc3ccc(NC(=O)c4c[nH]cc(-c5ccc(F)cc5)c4=O)nc3)c2cc1OC [Example 26, N-(5-((6,7-dimethoxyquinolin-4yl)oxy)pyridin-2-yl)-5-(4-fluorophenyl)-4-oxo-1,4-dihydropyridine-3-carboxamide] | 44 | 3 | 6.4 | 12.5 |  |
| COc1ccc(-c2cn(C(C)C)cc(C(=O)Nc3ccc(Oc4ccnc5cc(OC)c(OC)cc45)cn3)c2=O)cc1 [Example 30, N-(5-((6,7-dimethoxyquinolin-4yl)oxy)pyridin-2-yl)-1-isopropyl-5-(4-methoxyphenyl)-4-oxo-1,4-dihydropyridine-3-carboxamide] | 3.1 | 7 | 59.1 | 57.4 | 3.5 |
| COc1ccc(-c2cn(C(C)C)cc(C(=O)Nc3ccc(Oc4ccnc5cc(OC)c(OC)cc45)cn3)c2=O)c(F)c1 [Example 31, N-(5-((6,7-dimethoxyquinolin-4yl)oxy)pyridin-2-yl)-5-(2-fluoro-4-methoxyphenyl)-1-isopropyl-4-oxo-1,4-dihydropyridine-3-carboxamide] | 2 | 11 | 46.5 | 55.7 | 3.5 |

Further lines, results first:

| efflux ratio at 2 h, 1 μM (MDR1 (P-gp); [1]) | Papp at 2 h, 1 μM (MDR1 (P-gp)) [×10⁻⁶ cm/s] | IC50 (human MET kinase F1200I) [nM] | IC50 (human MET kinase D1228H) [nM] | efflux ratio at 2 h, 1 μM (MDR1 (P-gp); [2]) | Structure (SMILES) |
| --- | --- | --- | --- | --- | --- |
| 3.6 | 9 | 5.1 | 9.9 |  | COc1cc(-c2cn(C(C)C)cc(C(=O)Nc3ccc(Oc4ccnc5cc(OC)c(OC)cc45)cn3)c2=O)ccc1F [Example 20, N-(5-((6,7-dimethoxyquinolin-4yl)oxy)pyridin-2-yl)-5-(4-fluoro-3-methoxyphenyl)-1-isopropyl-4-oxo-1,4-dihydropyridine-3-carboxamide] |
| 1.3 | 1.2 | 16.2 | 18.7 | 3.5 | COc1cc2nccc(Oc3ccc(NC(=O)c4cn(C(C)C)cc(-c5ccc(F)c(Cl)c5)c4=O)nc3)c2cc1OC [Example 21, 5-(3-chloro-4-fluorophenyl)-N-(5-((6,7-dimethoxyquinolin-4-yl)oxy)pyridin-2-yl)-1-isopropyl-4-oxo-1,4-dihydropyridine-3-carboxamide] |
| 210 | 9.5 | 11.2 | 15.2 |  | COc1cc2nccc(Oc3ccc(NC(=O)c4cn(CC(=O)N(C)C)cc(-c5ccc(F)c(F)c5)c4=O)nc3)c2cc1OC [Example 24, 5-(3,4-difluorophenyl)-N-(5-((6,7-dimethoxyquinolin-4-yl)oxy)pyridin-2-yl)-1-(2-(dimethylamino)-2-oxoethyl)-4-oxo-1,4-dihydropyridine-3-carboxamide] |
| 5.5 | 16 | 1.6 | 1.1 |  | COc1cc2nccc(Oc3ccc(NC(=O)c4cn(C(C)C)c(C)c(-c5ccc(F)cc5)c4=O)nc3)c2cc1OC [Example 27, N-(5-((6,7-dimethoxyquinolin-4yl)oxy)pyridin-2-yl)-5-(4-fluorophenyl)-1-isopropyl-6-methyl-4-oxo-1,4-dihydropyridine-3-carboxamide] |
| 2.8 | 15 | 2.4 | 1.4 | 3.5 | COc1cc2nccc(Oc3ccc(NC(=O)c4cn(C(C)C)c(C)c(-c5ccc(F)c(F)c5)c4=O)nc3)c2cc1OC [Example 28, 5-(3,4-difluorophenyl)-N-(5-((6,7-dimethoxyquinolin-4yl)oxy)pyridin-2-yl)-1-isopropyl-6-methyl-4-oxo-1,4-dihydropyridine-3-carboxamide] |
| 3.6 | 10 | 3.2 | 2.4 |  | CCc1c(-c2ccc(F)cc2)c(=O)c(C(=O)Nc2ccc(Oc3ccnc4cc(OC)c(OC)cc34)cn2)cn1C(C)C [Example 29, N-(5-((6,7-dimethoxyquinolin-4yl)oxy)pyridin-2-yl)-6-ethyl-5-(4-fluorophenyl)-1-isopropyl-4-oxo-1,4-dihydropyridine-3-carboxamide] |
